Legend:
p21 (T145) = conditions: HEK293 cells; 48 h
A375 cells = conditions: 4 μM, 48 h
CAMK1D = CAMK1D (Homo sapiens, UniProt Q8IU85); assay: biochemical; conditions: read-out: %Ctrl @ 2000nM
CDC2L5 = CDC2L5 (Homo sapiens, UniProt Q14004); assay: biochemical; conditions: read-out: %Ctrl @ 2000nM
CSNK1A1 = CSNK1A1 (Homo sapiens, UniProt P48729); assay: biochemical; conditions: read-out: %Ctrl @ 2000nM
DCAMKL1 = DCAMKL1 (Homo sapiens, UniProt O15075); assay: biochemical; conditions: read-out: %Ctrl @ 2000nM
DRAK2 = DRAK2 (Homo sapiens, UniProt O94768); assay: biochemical; conditions: read-out: %Ctrl @ 2000nM
DYRK2 = DYRK2 (Homo sapiens, UniProt Q92630); assay: biochemical; conditions: read-out: %Ctrl @ 2000nM
EPHA5 = EPHA5 (Homo sapiens, UniProt P54756); assay: biochemical; conditions: read-out: %Ctrl @ 2000nM
EPHA7 = EPHA7 (Homo sapiens, UniProt Q15375); assay: biochemical; conditions: read-out: %Ctrl @ 2000nM
EPHB3 = EPHB3 (Homo sapiens, UniProt P54753); assay: biochemical; conditions: read-out: %Ctrl @ 2000nM
INSR = INSR (Homo sapiens, UniProt P06213); assay: biochemical; conditions: read-out: %Ctrl @ 2000nM
LTK = LTK (Homo sapiens, UniProt P29376); assay: biochemical; conditions: read-out: %Ctrl @ 2000nM
MARK3 = MARK3 (Homo sapiens, UniProt P27448); assay: biochemical; conditions: read-out: %Ctrl @ 2000nM
MERTK = MERTK (Homo sapiens, UniProt Q12866); assay: biochemical; conditions: read-out: %Ctrl @ 2000nM
MET = MET (Homo sapiens, UniProt P08581); assay: biochemical; conditions: read-out: %Ctrl @ 2000nM
MLCK = MLCK (Homo sapiens, UniProt Q32MK0); assay: biochemical; conditions: read-out: %Ctrl @ 2000nM
MYLK = MYLK (Homo sapiens, UniProt Q15746); assay: biochemical; conditions: read-out: %Ctrl @ 2000nM
NEK1 = NEK1 (Homo sapiens, UniProt Q96PY6); assay: biochemical; conditions: read-out: %Ctrl @ 2000nM
PIK3C2B = PIK3C2B (Homo sapiens, UniProt O00750); assay: biochemical; conditions: read-out: %Ctrl @ 2000nM
PIM2 = PIM2 (Homo sapiens, UniProt Q9P1W9); assay: biochemical; conditions: read-out: %Ctrl @ 2000nM
PIP5K2C = PIP5K2C (Homo sapiens, UniProt Q8TBX8); assay: biochemical; conditions: read-out: %Ctrl @ 2000nM
SGK3 = SGK3 (Homo sapiens, UniProt Q96BR1); assay: biochemical; conditions: read-out: %Ctrl @ 2000nM
SRPK3 = SRPK3 (Homo sapiens, UniProt Q9UPE1); assay: biochemical; conditions: read-out: %Ctrl @ 2000nM
TESK1 = TESK1 (Homo sapiens, UniProt Q15569); assay: biochemical; conditions: read-out: %Ctrl @ 2000nM
TIE1 = TIE1 (Homo sapiens, UniProt P35590); assay: biochemical; conditions: read-out: %Ctrl @ 2000nM
TRPM6 = TRPM6 (Homo sapiens, UniProt Q9BX84); assay: biochemical; conditions: read-out: %Ctrl @ 2000nM
WEE2 = WEE2 (Homo sapiens, UniProt P0C1S8); assay: biochemical; conditions: read-out: %Ctrl @ 2000nM

Chain of SGK3 (Q96BR1 whole entry): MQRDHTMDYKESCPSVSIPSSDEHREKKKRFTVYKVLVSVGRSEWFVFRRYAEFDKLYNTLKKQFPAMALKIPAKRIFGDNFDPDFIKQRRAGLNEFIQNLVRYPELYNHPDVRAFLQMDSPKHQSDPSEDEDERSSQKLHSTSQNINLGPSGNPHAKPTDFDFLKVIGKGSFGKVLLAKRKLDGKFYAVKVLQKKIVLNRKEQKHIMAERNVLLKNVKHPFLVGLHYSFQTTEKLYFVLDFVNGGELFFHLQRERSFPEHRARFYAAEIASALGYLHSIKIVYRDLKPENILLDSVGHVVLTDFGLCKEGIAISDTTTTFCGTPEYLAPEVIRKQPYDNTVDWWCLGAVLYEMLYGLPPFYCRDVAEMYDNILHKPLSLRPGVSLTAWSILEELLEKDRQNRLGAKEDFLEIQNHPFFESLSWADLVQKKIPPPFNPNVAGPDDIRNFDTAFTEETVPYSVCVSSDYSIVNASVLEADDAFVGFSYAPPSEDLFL
Chain of LTK (P29376 17-864): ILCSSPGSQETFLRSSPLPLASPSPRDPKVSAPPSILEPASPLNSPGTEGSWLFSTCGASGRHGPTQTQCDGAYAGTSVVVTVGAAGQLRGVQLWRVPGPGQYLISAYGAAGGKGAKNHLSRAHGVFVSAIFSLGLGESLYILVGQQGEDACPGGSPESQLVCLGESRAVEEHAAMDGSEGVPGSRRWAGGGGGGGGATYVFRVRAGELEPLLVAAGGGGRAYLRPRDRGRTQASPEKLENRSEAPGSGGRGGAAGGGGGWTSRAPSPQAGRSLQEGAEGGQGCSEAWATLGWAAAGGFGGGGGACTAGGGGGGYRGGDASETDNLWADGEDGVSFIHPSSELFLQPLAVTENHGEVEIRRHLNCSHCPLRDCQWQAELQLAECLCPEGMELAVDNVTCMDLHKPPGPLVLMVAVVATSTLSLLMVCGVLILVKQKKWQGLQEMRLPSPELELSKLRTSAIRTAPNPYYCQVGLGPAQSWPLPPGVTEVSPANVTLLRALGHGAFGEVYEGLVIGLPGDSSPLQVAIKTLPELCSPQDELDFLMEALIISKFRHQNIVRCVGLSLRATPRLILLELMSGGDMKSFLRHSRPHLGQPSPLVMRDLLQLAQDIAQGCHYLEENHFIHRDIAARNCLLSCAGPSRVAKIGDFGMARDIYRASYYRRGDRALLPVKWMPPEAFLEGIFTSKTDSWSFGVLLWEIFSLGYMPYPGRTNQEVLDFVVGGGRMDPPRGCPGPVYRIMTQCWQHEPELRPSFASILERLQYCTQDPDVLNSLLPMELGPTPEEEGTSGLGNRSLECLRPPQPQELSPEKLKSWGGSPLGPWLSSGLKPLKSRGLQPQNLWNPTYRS
Chain of MERTK (Q12866 21-999): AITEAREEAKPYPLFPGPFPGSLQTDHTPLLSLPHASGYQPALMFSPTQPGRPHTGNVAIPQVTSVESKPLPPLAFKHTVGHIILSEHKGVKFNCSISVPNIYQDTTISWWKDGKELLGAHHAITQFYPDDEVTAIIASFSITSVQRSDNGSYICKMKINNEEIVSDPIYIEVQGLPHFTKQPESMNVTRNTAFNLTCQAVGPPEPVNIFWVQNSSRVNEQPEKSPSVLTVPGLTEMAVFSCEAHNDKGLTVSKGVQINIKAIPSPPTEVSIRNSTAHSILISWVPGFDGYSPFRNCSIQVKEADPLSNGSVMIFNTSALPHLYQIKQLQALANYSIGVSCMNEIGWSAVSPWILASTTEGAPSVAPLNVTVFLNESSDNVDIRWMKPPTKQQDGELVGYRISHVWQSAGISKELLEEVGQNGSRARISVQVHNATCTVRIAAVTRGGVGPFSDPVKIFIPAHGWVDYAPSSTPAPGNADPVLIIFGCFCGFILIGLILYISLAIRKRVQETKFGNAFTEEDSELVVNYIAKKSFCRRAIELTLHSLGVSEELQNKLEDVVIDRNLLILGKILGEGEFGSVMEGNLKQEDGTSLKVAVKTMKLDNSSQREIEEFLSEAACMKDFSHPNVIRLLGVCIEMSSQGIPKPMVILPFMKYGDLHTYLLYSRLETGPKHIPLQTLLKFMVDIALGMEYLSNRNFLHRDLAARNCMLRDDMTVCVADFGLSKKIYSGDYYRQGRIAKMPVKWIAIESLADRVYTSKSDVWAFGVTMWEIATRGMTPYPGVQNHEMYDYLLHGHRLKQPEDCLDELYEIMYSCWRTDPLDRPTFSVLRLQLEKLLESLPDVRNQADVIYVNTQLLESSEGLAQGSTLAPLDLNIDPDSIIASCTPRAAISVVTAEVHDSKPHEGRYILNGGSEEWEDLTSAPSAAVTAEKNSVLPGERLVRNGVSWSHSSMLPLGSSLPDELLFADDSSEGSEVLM
Chain of EPHA5 (P54756 25-1037): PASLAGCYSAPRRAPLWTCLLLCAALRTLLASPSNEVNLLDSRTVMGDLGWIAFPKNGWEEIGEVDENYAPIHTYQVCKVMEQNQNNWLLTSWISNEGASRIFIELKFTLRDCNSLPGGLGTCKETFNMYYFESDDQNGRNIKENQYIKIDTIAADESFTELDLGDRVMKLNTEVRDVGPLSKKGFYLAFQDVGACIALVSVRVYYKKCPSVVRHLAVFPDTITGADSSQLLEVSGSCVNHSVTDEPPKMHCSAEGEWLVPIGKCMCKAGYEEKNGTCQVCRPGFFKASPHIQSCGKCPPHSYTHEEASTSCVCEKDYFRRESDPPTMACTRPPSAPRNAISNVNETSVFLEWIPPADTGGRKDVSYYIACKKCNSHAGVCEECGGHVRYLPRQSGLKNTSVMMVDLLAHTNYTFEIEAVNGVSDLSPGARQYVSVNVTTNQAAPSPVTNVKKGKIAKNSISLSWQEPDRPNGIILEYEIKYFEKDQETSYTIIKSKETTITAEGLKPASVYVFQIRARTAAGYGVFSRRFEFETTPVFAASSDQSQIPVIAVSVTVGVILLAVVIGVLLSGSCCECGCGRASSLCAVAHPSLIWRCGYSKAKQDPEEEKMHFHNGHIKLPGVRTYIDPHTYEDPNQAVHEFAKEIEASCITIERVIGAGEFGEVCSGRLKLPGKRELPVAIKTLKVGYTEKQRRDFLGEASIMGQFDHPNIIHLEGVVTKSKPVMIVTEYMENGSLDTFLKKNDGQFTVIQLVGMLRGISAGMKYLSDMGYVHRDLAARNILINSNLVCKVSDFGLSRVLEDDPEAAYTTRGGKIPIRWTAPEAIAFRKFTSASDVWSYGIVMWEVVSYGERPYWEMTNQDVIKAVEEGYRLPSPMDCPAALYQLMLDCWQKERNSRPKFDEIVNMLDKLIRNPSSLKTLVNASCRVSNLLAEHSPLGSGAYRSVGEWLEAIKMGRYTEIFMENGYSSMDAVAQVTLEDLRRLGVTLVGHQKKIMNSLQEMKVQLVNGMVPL
Chain of PIM2 (Q9P1W9 whole entry): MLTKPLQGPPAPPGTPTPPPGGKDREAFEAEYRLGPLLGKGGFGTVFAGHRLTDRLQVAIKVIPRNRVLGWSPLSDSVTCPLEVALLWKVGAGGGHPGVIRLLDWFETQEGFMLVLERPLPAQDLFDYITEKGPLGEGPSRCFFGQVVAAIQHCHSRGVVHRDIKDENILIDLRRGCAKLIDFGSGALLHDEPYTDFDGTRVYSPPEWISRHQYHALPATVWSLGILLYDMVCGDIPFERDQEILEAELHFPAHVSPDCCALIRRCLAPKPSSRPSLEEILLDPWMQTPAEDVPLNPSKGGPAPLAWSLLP
Chain of MLCK (Q32MK0 whole entry): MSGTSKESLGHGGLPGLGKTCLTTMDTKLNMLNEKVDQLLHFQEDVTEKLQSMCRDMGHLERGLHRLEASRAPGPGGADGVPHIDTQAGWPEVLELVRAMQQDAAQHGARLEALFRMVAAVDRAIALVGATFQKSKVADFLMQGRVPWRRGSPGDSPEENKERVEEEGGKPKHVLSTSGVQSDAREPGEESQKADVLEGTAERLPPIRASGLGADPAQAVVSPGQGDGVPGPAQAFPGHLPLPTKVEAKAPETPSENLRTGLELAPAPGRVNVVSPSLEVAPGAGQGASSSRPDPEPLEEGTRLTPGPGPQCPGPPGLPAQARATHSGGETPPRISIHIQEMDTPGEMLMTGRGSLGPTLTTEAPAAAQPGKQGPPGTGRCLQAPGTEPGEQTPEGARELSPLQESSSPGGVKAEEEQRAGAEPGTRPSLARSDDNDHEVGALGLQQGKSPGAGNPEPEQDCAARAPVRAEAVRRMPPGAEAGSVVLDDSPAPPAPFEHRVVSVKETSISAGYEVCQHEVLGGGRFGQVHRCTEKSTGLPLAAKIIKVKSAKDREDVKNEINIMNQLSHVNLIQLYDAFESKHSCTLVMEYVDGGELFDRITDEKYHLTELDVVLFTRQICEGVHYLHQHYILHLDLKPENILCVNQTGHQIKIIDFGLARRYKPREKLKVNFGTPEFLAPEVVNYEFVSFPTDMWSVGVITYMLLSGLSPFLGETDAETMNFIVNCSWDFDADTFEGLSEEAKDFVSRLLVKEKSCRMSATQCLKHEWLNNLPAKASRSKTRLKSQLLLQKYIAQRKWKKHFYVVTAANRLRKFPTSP
Chain of SRPK3 (Q9UPE1 whole entry): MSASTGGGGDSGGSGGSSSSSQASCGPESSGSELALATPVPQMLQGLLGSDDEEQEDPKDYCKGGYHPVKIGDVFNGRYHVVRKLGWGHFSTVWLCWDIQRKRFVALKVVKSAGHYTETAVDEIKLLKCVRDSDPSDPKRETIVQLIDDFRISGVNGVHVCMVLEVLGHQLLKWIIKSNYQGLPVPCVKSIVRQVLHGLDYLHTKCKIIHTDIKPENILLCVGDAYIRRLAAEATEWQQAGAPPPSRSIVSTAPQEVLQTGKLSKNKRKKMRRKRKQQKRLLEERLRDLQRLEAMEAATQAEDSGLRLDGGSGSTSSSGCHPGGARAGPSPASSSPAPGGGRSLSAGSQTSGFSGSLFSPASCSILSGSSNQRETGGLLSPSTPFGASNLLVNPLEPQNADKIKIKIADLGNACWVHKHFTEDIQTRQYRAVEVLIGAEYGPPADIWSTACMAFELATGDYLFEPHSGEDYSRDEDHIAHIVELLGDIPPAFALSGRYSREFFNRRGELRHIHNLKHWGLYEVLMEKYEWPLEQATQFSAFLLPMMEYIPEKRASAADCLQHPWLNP

In the case of `CC(C)COC(=O)c1[nH]c2ccc(F)cc2c1-c1cn(CC2CCN(CCNS(=O)(=O)c3ccc(CC(C)C)cc3)CC2)nn1` [AB668, isobutyl 5-fluoro-3-(1-((1-(2-((4-isobutylphenyl)sulfonamido)ethyl)piperidin-4-yl)methyl)-1H-1,2,3-triazol-4-yl)-1H-indole-2-carboxylate], the “%Ctrl @ 2000nM” value (FLT3(ITD)) is reported as 93%, the p21 phosphorylation (p21 (T145)) is reported as “weakly affected” and the “proliferation, cell death and apoptosis” value (A375 cells) is reported as “induced significant cell proliferation arrest associated with cell death and apoptosis”. For the same compound, the remaining activity at 2 µM (CAMK1D) was 96%, the remaining activity at 2 µM (CDC2L5) was 98% and the remaining activity at 2 µM (CSNK1A1) was 96%. For the same compound, the remaining activity at 2 µM (DCAMKL1) was 71%, the remaining activity at 2 µM (DRAK2) was 100% and the remaining activity at 2 µM (DYRK2) was 76%. For the same compound, the remaining activity at 2 µM (EPHA5) was 100%, the remaining activity at 2 µM (EPHA7) was 93% and the remaining activity at 2 µM (EPHB3) was 80%. It also gave a remaining activity at 2 µM (INSR) of 97%, a remaining activity at 2 µM (LTK) of 94% and a remaining activity at 2 µM (MARK3) of 0%. It also gave a remaining activity at 2 µM (MERTK) of 96%, a remaining activity at 2 µM (MET) of 100% and a remaining activity at 2 µM (MLCK) of 100%. The remaining activity at 2 µM (MYLK) was 81%, the remaining activity at 2 µM (NEK1) was 73% and the remaining activity at 2 µM (PIK3C2B) was 100%. It also gave a remaining activity at 2 µM (PIM2) of 84%, a remaining activity at 2 µM (PIP5K2C) of 81% and a remaining activity at 2 µM (SGK3) of 99%. It also gave a remaining activity at 2 µM (SRPK3) of 100%, a remaining activity at 2 µM (TESK1) of 95% and a remaining activity at 2 µM (TIE1) of 89%. For the same compound, the remaining activity at 2 µM (TRPM6) was 81% and the remaining activity at 2 µM (WEE2) was 95%.

Reference: publication PMC10838953
